The record followed here is ChEMBL document CHEMBL5365484, “Discovery and Characterization of Novel CNS-Penetrant GPR55 Agonists” (J Med Chem, 2023).

In series [1] the target is G-protein coupled receptor 55 (Homo sapiens, UniProt Q9Y2T6). Briefly: Agonist activity at human GPR55 expressed in human HEK293 cells assessed as effect on calcium flux incubated for 5 mins by FLIPR analysis. Type of series: functional, cell-based. (In general: Calcium flux is commonly read through the fluorescence of an indicator in the cells.)
Series [2] in a line: Agonist activity at rat GPR55 expressed in human HEK293 cells assessed as effect on calcium flux incubated for 5 mins by FLIPR analysis. To be noted: HEK293, 5 min.
Series [3] can be described thus: Metabolic stability in rat liver microsomes assessed as intrinsic clearance at 1 uM preincubated for 60 mins followed by NADPH addition and measured after 60 mins by LC-MS/MS analysis. Type of series: ADME, Microsome. The settings on record: time 120 min, read-out: CLH. For orientation: Microsomes from liver hold many membrane-bound enzymes, among them those of drug oxidation.

Another series relates to Striatal neuron. As to the kind of experiment: Neurophysiological effect on Wistar rat Striatal neuron assessed as decrease in potential firing frequency at 1 uM and measured after 3 mins by Whole-cell patch clamp assay. The format is functional, cell-based. (In general: The patch-clamp technique gives a direct electrical read-out from membranes.)
A short description of series [4]: Toxicity in Wistar rat Striatal neuron assessed as cell viability at 1 uM. Type of series: cell-based.
A further series has as its system Rattus norvegicus. As to the kind of experiment: Effect on haloperidol-induced […] activity in Sprague-Dawley rat model assessed as locomotor activity at 3 mg/kg, po and measured after 60 mins. Type of series: functional, organism-based.

Calls of active or inactive are those of the source. The calls are words filed in the database; no cut-off is given here.

Sequence of G-protein coupled receptor 55 (Q9Y2T6 whole entry): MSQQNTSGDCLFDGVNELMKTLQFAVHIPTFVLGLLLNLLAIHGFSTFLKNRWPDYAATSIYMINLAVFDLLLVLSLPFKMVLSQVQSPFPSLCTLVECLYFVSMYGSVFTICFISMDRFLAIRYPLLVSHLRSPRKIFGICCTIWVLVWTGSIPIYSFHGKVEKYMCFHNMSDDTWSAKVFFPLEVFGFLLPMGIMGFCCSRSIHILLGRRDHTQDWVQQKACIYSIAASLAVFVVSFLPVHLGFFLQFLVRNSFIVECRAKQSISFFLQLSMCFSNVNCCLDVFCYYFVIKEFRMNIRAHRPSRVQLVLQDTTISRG

As usually defined, the EC50 is the concentration giving half of the maximal effect. `C[C@@H](Nc1ccc(-c2cnn(C)c2)cn1)c1ccc(F)cc1`: the results for the EC50 in series [1] and in series [2] were 427 nM and 3510 nM, respectively.

`CCc1cncc(-c2cnc(N[C@H](C)c3ccc(F)cc3)cn2)c1`: the EC50 in series [1] is 3.01 nM; in series [2], 32.5 nM. The microsomal CLint at 1 µM in series [3] is 78 µL/min/mg.

For the compound `C[C@@H](Nc1ccc(-c2cncc(S(C)(=O)=O)c2)cn1)c1ccc(F)cc1`, the EC50 in series [1] was found to be 85.1 nM; in series [2] it was 716 nM. The microsomal CLint at 1 µM in series [3] came to 3.8 µL/min/mg.

For the compound `C[C@@H](Nc1ncc(-c2cncc(CC(F)(F)F)c2)nn1)c1ccc(F)cc1`, the microsomal CLint at 1 µM in series [3] stood at 6.4 µL/min/mg.

Take `C[C@@H](Nc1ccc(-c2ccc3oc(=O)n(C)c3c2)cn1)c1ccc(F)cc1`: the microsomal CLint at 1 µM in series [3] came to 3.9 µL/min/mg.

`C[C@@H](Nc1ccc(-c2cncc(C(F)(F)F)c2)cn1)c1ccc(F)cc1`: the microsomal CLint at 1 µM in series [3] was found to be 5.2 µL/min/mg.

As to `C[C@@H](Nc1ccc(-c2ccc3oc(=O)[nH]c3c2)cn1)c1ccc(F)cc1`, the figures for the EC50 in series [1] and in series [2] were 573 nM and 2400 nM, respectively.

Regarding `C[C@@H](Nc1ccc(-c2cncc(C3CC3)c2)cn1)c1ccc(F)cc1`, the EC50 is 13.8 nM in series [1] and 514 nM in series [2]. Also, the microsomal CLint at 1 µM in series [3] was found to be 10 µL/min/mg.

In the case of `Cc1cncc(-c2ccc(N[C@H](C)c3ccc(F)cc3)nc2)c1`, in series [3], the microsomal CLint at 1 µM stood at 234 µL/min/mg.

On to `C[C@@H](Nc1cnc(-c2cncc(CC(F)F)c2)cn1)c1ccc(F)cc1`, for which the results for the EC50 in series [1] and in series [2] were 0.439 nM and 4.13 nM, respectively. In addition, the microsomal CLint at 1 µM in series [3] was 16 µL/min/mg. Moreover, the outcome in the series on Striatal neuron was Active. Moreover, the Activity result in series [4] was “Non-Toxic”.

`CCn1c(=O)c2c(nc(/C=C/c3ccc(OC)c(OC)c3)n2C)n(CC)c1=O`: the outcome in the series on Rattus norvegicus was Active.

With `CCc1cncc(-c2ccc(N[C@H](C)c3ccc(F)cc3)nc2)c1`, the microsomal CLint at 1 µM in series [3] amounted to 48 µL/min/mg.

For `C[C@@H](Nc1ccc(-c2cncc(S(C)(=N)=O)c2)cn1)c1ccc(F)cc1` (stereo not given in full), the microsomal CLint at 1 µM in series [3] worked out at 2 µL/min/mg.
